# From patent publication US11834430B2, “Compounds useful as inhibitors of isoprenylcysteine carboxyl methyltransferase” (AGENCY FOR SCIENCE, TECHNOLOGY AND RESEARCH, priority 2017, dated 2023)
# pIC50: −log10 of the molar value. “And” between values parts separate entries of the source, which are not always exact repeats. Equal entries are not always repeated.
# Target: human ICMT (Homo sapiens (Human), UniProt O60725)
# Assay: ICMT biochemical assay (Methyltransferase-Glo)
# Conditions: ICMT membrane extract from Sf-9 cells; 30 min preincubation, 90 min reaction
# Protocol: Recombinant human ICMT was prepared by infection of Sf9 cells with a recombinant baculovirus containing the entire open reading frame of the human ICMT cDNA.
# Cells producing ICMT were harvested 66 hours post-infection. The cells are homogenized and resuspended in 5 mM NaHPO4 (pH 7.0), and a cocktail of protease inhibitors. The membrane was pelleted, after removal of nuclei and debris, at 100,000×g for 1 hour. Membranes were resuspended in 5 mM NaHPO4 (pH 7.0) with 5 mM EDTA at 10-12 mg/ml. The suspension was stored at −80° C. in multiple aliquots.
# An ICMT enzymatic assay was developed using Promega's Methyltransferase-GloTMreagents. In the assay, ICMT catalyzes the methylation of the N-Acetyl-S-farnesyl-L-cysteine by transferring a methyl group from SAM to the farnesylated cysteine and further converts the SAM to SAH. The methyltransferase activity is measured based on the amount of SAH produced from the reaction through the use of coupling enzymes that convert the SAH to ATP. The MTase-Glo detection solution then catalyzes the formation of light from ATP.
# A final concentration of 2.0 μM and 20 μM of SAM and peptide were added and further incubated for 90 minutes at room temperature before adding the MTase Glo and detection reagent. Reaction signals were detected using microplate readers on luminescent mode (Satire Tecan). The IC50 was determined by nonlinear regression, using GraphPad Prism version, 5.03.
# Chain of human ICMT (O60725 whole entry): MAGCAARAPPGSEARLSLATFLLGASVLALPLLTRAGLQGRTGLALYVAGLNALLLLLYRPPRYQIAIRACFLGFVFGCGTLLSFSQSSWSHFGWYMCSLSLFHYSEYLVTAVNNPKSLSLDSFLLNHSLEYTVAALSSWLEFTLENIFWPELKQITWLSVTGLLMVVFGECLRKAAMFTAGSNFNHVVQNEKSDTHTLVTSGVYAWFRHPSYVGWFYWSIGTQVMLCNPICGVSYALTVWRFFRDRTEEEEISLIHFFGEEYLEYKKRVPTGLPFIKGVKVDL
row,pIC50,Structure (SMILES)
1,6.25,"N#Cc1ccc(OCCOc2cccc(-n3cncn3)c2)cc1 [Compound 1, 4-(2-(3-(1H-1,2,4-triazol-1-yl)phenoxy)ethoxy)benzonitrile]"
2,6.20 and 6.31,"N#Cc1ccc(OCCOc2cccc(-c3cncs3)c2)cc1 [Compound 3, 4-(2-(3-(thiazol-5-yl)phenoxy)ethoxy)benzonitrile]"
3,6.59 and 6.66 and 6.41,"Cc1nccn1-c1cccc(OCCOc2ccc(C#N)nc2)c1 [Compound 4, 5-(2-(3-(2-methyl-1H-imidazol-1-yl)phenoxy)ethoxy)picolinonitrile]"
4,8.70 and 9.00 and 8.62,"Cc1nccn1-c1cccc(OCCOc2ccc(C#N)cc2F)c1 [Compound 6, 3-fluoro-4-(2-(3-(2-methyl-1H-imidazol-1-yl)phenoxy)ethoxy)benzonitrile]"
5,8.52,"Cn1nccc1-c1cccc(OCCOc2ccc(C#N)cc2Cl)c1 [Compound 7, 3-chloro-4-(2-(3-(1-methyl-1H-pyrazol-5-yl)phenoxy)ethoxy)benzonitrile]"
6,9.70 and 9.44,"COc1cc(C#N)ccc1OCCOc1cccc(-n2ccnc2C)c1 [Compound 8, 3-methoxy-4-(2-(3-(2-methyl-1H-imidazol-1-yl)phenoxy)ethoxy)benzonitrile]"
7,10.00 and 9.74,"N#Cc1ccc(OCCOc2cccc(-n3ccnc3C3CC3)c2)c(Cl)c1 [Compound 9, 3-chloro-4-(2-(3-(2-cyclopropyl-1H-imidazol-1-yl)phenoxy)ethoxy)benzonitrile]"
8,7.10,"Cc1nccn1-c1cccc(OCCOc2ccc(C#N)cn2)c1 [Compound 10, 6-(2-(3-(2-methyl-1H-imidazol-1-yl)phenoxy)ethoxy)nicotinonitrile]"
9,7.70,"N#Cc1ccc(OCCOc2cccc(-c3cncs3)c2)c(Cl)c1 [Compound 11, 3-chloro-4-(2-(3-(thiazol-5-yl)phenoxy)ethoxy)benzonitrile]"
10,6.68,"N#Cc1ccc(OCCOc2cccc(-c3cncs3)c2)c(F)c1 [Compound 12, 3-fluoro-4-(2-(3-(thiazol-5-yl)phenoxy)ethoxy)benzonitrile]"
11,7.96,"Cc1ccc(OCCOc2cccc(-n3ccnc3C)c2)c(C#N)c1 [Compound 13, 5-methyl-2-(2-(3-(2-methyl-1H-imidazol-1-yl)phenoxy)ethoxy)benzonitrile]"
12,7.82,"Cn1nccc1-c1cccc(OCCOc2ccc(C#N)cc2F)c1 [Compound 14, 3-fluoro-4-(2-(3-(1-methyl-1H-pyrazol-5-yl)phenoxy)ethoxy)benzonitrile]"
13,8.96 and 9.05,"COc1cc(C#N)ccc1OCCOc1cccc(-c2ccnn2C)c1 [Compound 15, 3-methoxy-4-(2-(3-(1-methyl-1H-pyrazol-5-yl)phenoxy)ethoxy)benzonitrile]"
14,8.10 and 7.96,"COc1cc(C#N)ccc1OCCOc1cccc(-c2cncs2)c1 [Compound 16, 3-methoxy-4-(2-(3-(thiazol-5-yl)phenoxy)ethoxy)benzonitrile]"
15,7.80,"N#Cc1ccc(OCCOc2cccc(-n3ccnc3C3CC3)c2)c(F)c1 [Compound 17, 4-(2-(3-(2-cyclopropyl-1H-imidazol-1-yl)phenoxy)ethoxy)-3-fluorobenzonitrile]"
16,8.52,"Cc1ccc(OCCOc2cccc(-c3ccnn3C)c2)c(C#N)c1 [Compound 18, 5-methyl-2-(2-(3-(1-methyl-1H-pyrazol-5-yl)phenoxy)ethoxy)benzonitrile]"
17,8.35,"COc1cc(C#N)ccc1OCCOc1cccc(-n2ccnc2C2CC2)c1 [Compound 19, 4-(2-(3-(2-cyclopropyl-1H-imidazol-1-yl)phenoxy)ethoxy)-3-methoxybenzonitrile]"

row,pIC50,Structure (SMILES)
1,9.77 and 9.80,"N#Cc1ccc(OCCOc2cccc(-n3ccnc3C3CC3)c2)cc1 [Compound 20, 4-(2-(3-(2-cyclopropyl-1H-imidazol-1-yl)phenoxy)ethoxy)benzonitrile]"
2,6.53,"N#Cc1ccc(OCCOc2cccc(-n3cnnc3)c2)cc1 [Compound 21, 4-(2-(3-(4H-1,2,4-triazol-4-yl)phenoxy)ethoxy)benzonitrile]"
3,8.52,"Cc1nccn1-c1cccc(OC(C)COc2ccc(C#N)cc2Cl)c1 (stereo not shown) [Compound 22, 3-chloro-4-(2-(3-(2-methyl-1H-imidazol-1-yl)phenoxy)propoxy)benzonitrile]"
4,7.21,"Cc1nccn1-c1cccc(OC(C)COc2ccc(C#N)cc2F)c1 (stereo not shown) [Compound 23, 3-fluoro-4-(2-(3-(2-methyl-1H-imidazol-1-yl)phenoxy)propoxy)benzonitrile]"
5,9.00,"Cc1nccn1-c1cc(OCCOc2ccc(C#N)cc2Cl)ccn1 [Compound 24, 3-chloro-4-(2-((2-(2-methyl-1H-imidazol-1-yl)pyridin-4-yl)oxy)ethoxy)benzonitrile]"
6,7.64,"Cc1nccn1-c1cccc(OCC(C)Oc2ccc(C#N)cc2F)c1 (stereo not shown) [Compound 25, 3-fluoro-4-((1-(3-(2-methyl-1H-imidazol-1-yl)phenoxy)propan-2-yl)oxy)benzonitrile]"
7,7.16,"C#Cc1ccc(OCCOc2cccc(-n3ccnc3C)c2)cc1 [Compound 26, 1-(3-(2-(4-ethynylphenoxy)ethoxy)phenyl)-2-methyl-1H-imidazole]"
8,6.54,"Cc1cc(F)ccc1OCCOc1cccc(-c2ccnn2C)c1 [Compound 27, 5-(3-(2-(4-fluoro-2-methylphenoxy)ethoxy)phenyl)-1-methyl-1H-pyrazole]"
9,8.80,"CC(COc1cccc(-n2ccnc2C2CC2)c1)Oc1ccc(C#N)cc1F (stereo not shown) [Compound 28, 4-((1-(3-(2-cyclopropyl-1H-imidazol-1-yl)phenoxy)propan-2-yl)oxy)-3-fluorobenzonitrile]"
10,10.10,"COc1cc(C#N)ccc1OC(C)COc1cccc(-n2ccnc2C)c1 (stereo not shown) [Compound 29, 3-methoxy-4-((1-(3-(2-methyl-1H-imidazol-1-yl)phenoxy)propan-2-yl)oxy)benzonitrile]"
11,8.80,"Cc1cc(C#N)ccc1OC(C)COc1cccc(-c2ccnn2C)c1 (stereo not shown) [Compound 30, 3-methyl-4-((1-(3-(1-methyl-1H-pyrazol-5-yl)phenoxy)propan-2-yl)oxy)benzonitrile]"
12,8.92,"COc1cc(C#N)ccc1OC(C)COc1cccc(-c2ccnn2C)c1 (stereo not shown) [Compound 31, 3-methoxy-4-((1-(3-(1-methyl-1H-pyrazol-5-yl)phenoxy)propan-2-yl)oxy)benzonitrile]"
13,6.70,"Cc1nccn1-c1cccc(O[C@H](C)COc2ccc(C#N)cc2Cl)c1 [Compound 32, (R)-3-chloro-4-(2-(3-(2-methyl-1H-imidazol-1-yl)phenoxy)propoxy)benzonitrile]"
14,8.82,"Cc1nccn1-c1cccc(O[C@@H](C)COc2ccc(C#N)cc2Cl)c1 [Compound 33, (S)-3-chloro-4-(2-(3-(2-methyl-1H-imidazol-1-yl)phenoxy)propoxy)benzonitrile]"
15,5.83,"Cc1nccn1-c1cccc(O[C@H](C)COc2ccc(C#N)cc2F)c1 [Compound 34, (R)-3-fluoro-4-(2-(3-(2-methyl-1H-imidazol-1-yl)phenoxy)propoxy)benzonitrile]"
16,8.44,"Cc1nccn1-c1cccc(O[C@@H](C)COc2ccc(C#N)cc2F)c1 [Compound 35, (S)-3-fluoro-4-(2-(3-(2-methyl-1H-imidazol-1-yl)phenoxy)propoxy)benzonitrile]"
17,6.85,"Cc1nccn1-c1cccc(OCCOc2ccc(C#N)cc2OC(F)(F)F)c1 [Compound 36, 4-(2-(3-(2-methyl-1H-imidazol-1-yl)phenoxy)ethoxy)-3-(trifluoromethoxy)benzonitrile]"
